Laboratory results taken from patent US20100267561A1, “HERBICIDAL PYRIDAZINONE DERIVATIVES” (priority 2007, published 2010).

Experiments:
Assay type in all cases: in vivo
[1] = tested on: pigweed (Amaranthus retroflexus); experiment: Test A pre-/postemergence plant response
Summary of the method: (§1)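 Ratings are visual, 0–100, where 100 means complete control and 0 no effect, taken roughly 10 days after treatment by comparison with untreated controls. Formulation: non-phytotoxic solvent mixture with surfactant.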

[2] = tested on: wheat (Triticum aestivum); experiment: Test A pre-/postemergence plant response
Summary of the method: as §1

[3] = tested on: Italian ryegrass (Lolium multiflorum); experiment: Test C pre-/postemergence plant response
Summary of the method: (§2)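 Test chemicals in a non-phytotoxic solvent with surfactant were applied preemergence, and some were also applied postemergence to plants 2–18 cm tall (1- to 4-leaf stage). Visual ratings against controls were made after 15–25 days in a controlled environment, on a 0–100 scale where 100 means complete control.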

[4] = tested on: annual bluegrass (Poa annua); experiment: Test C pre-/postemergence plant response
Summary of the method: as §2

[5] = tested on: blackgrass (Alopecurus myosuroides); experiment: Test C pre-/postemergence plant response
Summary of the method: as §2

[6] = tested on: canarygrass (Phalaris minor); experiment: Test C pre-/postemergence plant response
Summary of the method: as §2

[7] = tested on: downy bromegrass (Bromus tectorum); experiment: Test C pre-/postemergence plant response
Summary of the method: as §2

[8] = tested on: green foxtail (Setaria viridis); experiment: Test C pre-/postemergence plant response
Summary of the method: as §2

[9] = tested on: pigweed (Amaranthus retroflexus); experiment: Test C pre-/postemergence plant response
Summary of the method: as §2

[10] = tested on: spring barley (Hordeum vulgare); experiment: Test C pre-/postemergence plant response
Summary of the method: as §2

[11] = tested on: spring wheat (Triticum aestivum); experiment: Test C pre-/postemergence plant response
Summary of the method: as §2

[12] = tested on: wild mustard (Sinapis arvensis); experiment: Test C pre-/postemergence plant response
Summary of the method: as §2

wild oat (Avena fatua) = experiment: Test C pre-/postemergence plant response
Summary of the method: as §2

[13] = tested on: windgrass (Apera spica-venti); experiment: Test C pre-/postemergence plant response
Summary of the method: as §2

[14] = tested on: winter barley (Hordeum vulgare); experiment: Test C pre-/postemergence plant response
Summary of the method: as §2

[15] = tested on: winter wheat (Triticum aestivum); experiment: Test C pre-/postemergence plant response
Summary of the method: as §2

[16] = Postemergence, 31 g ai/ha, 0 to 100 scale, 0 no effect, 100 complete control
[17] = Postemergence, 125 g ai/ha, 0 to 100 scale, 0 no effect, 100 complete control
[18] = Preemergence, 31 g ai/ha, 0 to 100 scale, 0 is no effect, 100 is complete control
[19] = Preemergence, 125 g ai/ha, 0 to 100 scale (0 no effect, 100 complete control)
[20] = Postemergence, 8 g ai/ha, scale 0 to 100, 0 no effect, 100 complete control
[21] = Postemergence, 16 g ai/ha, scale 0 to 100, 0 no effect, 100 complete control
[22] = Postemergence, 31 g ai/ha, scale 0 to 100, 0 no effect, 100 complete control
[23] = Postemergence, 62 g ai/ha, scale 0 to 100, 0 no effect, 100 complete control
[24] = Preemergence, 8 g ai/ha, scale 0 to 100 (0 no effect, 100 complete control)
[25] = Preemergence, 16 g ai/ha, scale 0 to 100 (0 no effect, 100 complete control)
[26] = Preemergence, 31 g ai/ha, scale 0 to 100 (0 no effect, 100 complete control)
[27] = Preemergence, 62 g ai/ha, scale 0 to 100, 0 no effect, 100 complete control

Cc1cc(-c2ccc(C(F)(F)F)c(F)c2)nn1-c1c(O)c(C(F)(F)F)nn(C)c1=O [Compound 44]
Plant response rating, Pigweed [1, 16]: 0 | Plant response rating, Pigweed [1, 17]: 0 | Plant response rating, Pigweed [1, 18]: 0 | Plant response rating, Pigweed [1, 19]: 0 | Plant response rating, Wheat [2, 16]: 70 | Plant response rating, Wheat [2, 17]: 80 | Plant response rating, Wheat [2, 18]: 40 | Plant response rating, Wheat [2, 19]: 80 | Plant response rating, Ryegrass, Italian [3, 20]: 90 | Plant response rating, Ryegrass, Italian [3, 21]: 98 | Plant response rating, Ryegrass, Italian [3, 22]: 100 | Plant response rating, Ryegrass, Italian [3, 23]: 100 | Plant response rating, Ryegrass, Italian [3, 24]: 90 | Plant response rating, Ryegrass, Italian [3, 25]: 100 | Plant response rating, Ryegrass, Italian [3, 26]: 100 | Plant response rating, Ryegrass, Italian [3, 27]: 100 | Plant response rating, Bluegrass [4, 20]: 0 | Plant response rating, Bluegrass [4, 21]: 0 | Plant response rating, Bluegrass [4, 22]: 0 | Plant response rating, Bluegrass [4, 23]: 0 | Plant response rating, Bluegrass [4, 24]: 0 | Plant response rating, Bluegrass [4, 25]: 0 | Plant response rating, Bluegrass [4, 26]: 0 | Plant response rating, Bluegrass [4, 27]: 0 | Plant response rating, Blackgrass [5, 20]: 90 | Plant response rating, Blackgrass [5, 21]: 98 | Plant response rating, Blackgrass [5, 22]: 100 | Plant response rating, Blackgrass [5, 23]: 100 | Plant response rating, Blackgrass [5, 25]: 25 | Plant response rating, Blackgrass [5, 26]: 100 | Plant response rating, Blackgrass [5, 27]: 100 | Plant response rating, Canarygrass [6, 20]: 75 | Plant response rating, Canarygrass [6, 21]: 80 | Plant response rating, Canarygrass [6, 22]: 90 | Plant response rating, Canarygrass [6, 23]: 100 | Plant response rating, Canarygrass [6, 24]: 30 | Plant response rating, Canarygrass [6, 25]: 65 | Plant response rating, Canarygrass [6, 26]: 75 | Plant response rating, Canarygrass [6, 27]: 85 | Plant response rating, Bromegrass, Downy [7, 20]: 15 | Plant response rating, Bromegrass, Downy [7, 21]: 40 | Plant response rating, Bromegrass, Downy [7, 22]: 65 | Plant response rating, Bromegrass, Downy [7, 23]: 75 | Plant response rating, Bromegrass, Downy [7, 24]: 0 | Plant response rating, Bromegrass, Downy [7, 25]: 20 | Plant response rating, Bromegrass, Downy [7, 26]: 50 | Plant response rating, Bromegrass, Downy [7, 27]: 80 | Plant response rating, Foxtail, Green [8, 20]: 50 | Plant response rating, Foxtail, Green [8, 21]: 95 | Plant response rating, Foxtail, Green [8, 22]: 98 | Plant response rating, Foxtail, Green [8, 23]: 100 | Plant response rating, Foxtail, Green [8, 24]: 15 | Plant response rating, Foxtail, Green [8, 25]: 90 | Plant response rating, Foxtail, Green [8, 26]: 100 | Plant response rating, Foxtail, Green [8, 27]: 100 | Plant response rating, Pigweed [9, 20]: 0 | Plant response rating, Pigweed [9, 21]: 0 | Plant response rating, Pigweed [9, 22]: 0 | Plant response rating, Pigweed [9, 23]: 0 | Plant response rating, Pigweed [9, 24]: 0 | Plant response rating, Pigweed [9, 25]: 20 | Plant response rating, Pigweed [9, 26]: 20 | Plant response rating, Pigweed [9, 27]: 20 | Plant response rating, Barley, Spring [10, 20]: 60 | Plant response rating, Barley, Spring [10, 21]: 95 | Plant response rating, Barley, Spring [10, 22]: 95 | Plant response rating, Barley, Spring [10, 23]: 98 | Plant response rating, Barley, Spring [10, 24]: 0 | Plant response rating, Barley, Spring [10, 25]: 60 | Plant response rating, Barley, Spring [10, 26]: 60 | Plant response rating, Barley, Spring [10, 27]: 75 | Plant response rating, Wheat, Spring [11, 20]: 70 | Plant response rating, Wheat, Spring [11, 21]: 95 | Plant response rating, Wheat, Spring [11, 22]: 95 | Plant response rating, Wheat, Spring [11, 23]: 100 | Plant response rating, Wheat, Spring [11, 24]: 0 | Plant response rating, Wheat, Spring [11, 25]: 20 | Plant response rating, Wheat, Spring [11, 26]: 70 | Plant response rating, Wheat, Spring [11, 27]: 75 | Plant response rating, Mustard, Wild [12, 20]: 0 | Plant response rating, Mustard, Wild [12, 21]: 0 | Plant response rating, Mustard, Wild [12, 22]: 0 | Plant response rating, Mustard, Wild [12, 23]: 0 | Plant response rating, Mustard, Wild [12, 24]: 0 | Plant response rating, Mustard, Wild [12, 25]: 0 | Plant response rating, Mustard, Wild [12, 26]: 0 | Plant response rating, Oat, Wild (wild oat (Avena fatua); [20]): 100 | Plant response rating, Oat, Wild (wild oat (Avena fatua); [21]): 100 | Plant response rating, Oat, Wild (wild oat (Avena fatua); [22]): 100 | Plant response rating, Oat, Wild (wild oat (Avena fatua); [23]): 100 | Plant response rating, Oat, Wild (wild oat (Avena fatua); [24]): 50 | Plant response rating, Oat, Wild (wild oat (Avena fatua); [25]): 75 | Plant response rating, Oat, Wild (wild oat (Avena fatua); [26]): 80 | Plant response rating, Oat, Wild (wild oat (Avena fatua); [27]): 90 | Plant response rating, Windgrass [13, 20]: 50 | Plant response rating, Windgrass [13, 21]: 90 | Plant response rating, Windgrass [13, 22]: 95 | Plant response rating, Windgrass [13, 23]: 100 | Plant response rating, Windgrass [13, 24]: 100 | Plant response rating, Windgrass [13, 25]: 100 | Plant response rating, Windgrass [13, 26]: 100 | Plant response rating, Windgrass [13, 27]: 100 | Plant response rating, Barley, Winter [14, 20]: 20 | Plant response rating, Barley, Winter [14, 21]: 75 | Plant response rating, Barley, Winter [14, 22]: 90 | Plant response rating, Barley, Winter [14, 23]: 95 | Plant response rating, Barley, Winter [14, 24]: 0 | Plant response rating, Barley, Winter [14, 25]: 50 | Plant response rating, Barley, Winter [14, 26]: 75 | Plant response rating, Barley, Winter [14, 27]: 75 | Plant response rating, Wheat, Winter [15, 20]: 75 | Plant response rating, Wheat, Winter [15, 21]: 80 | Plant response rating, Wheat, Winter [15, 22]: 95 | Plant response rating, Wheat, Winter [15, 23]: 98 | Plant response rating, Wheat, Winter [15, 24]: 40 | Plant response rating, Wheat, Winter [15, 25]: 65 | Plant response rating, Wheat, Winter [15, 27]: 70

Cc1cc(-c2ccc(Cl)cc2)nn1-c1c(OS(=O)(=O)c2cccc3ccccc23)cnn(C)c1=O [Compound 47]
Plant response rating, Pigweed [1, 16]: 0 | Plant response rating, Pigweed [1, 17]: 0 | Plant response rating, Pigweed [1, 18]: 0 | Plant response rating, Pigweed [1, 19]: 0 | Plant response rating, Wheat [2, 16]: 0 | Plant response rating, Wheat [2, 17]: 10 | Plant response rating, Wheat [2, 18]: 0 | Plant response rating, Wheat [2, 19]: 40 | Plant response rating, Ryegrass, Italian [3, 24]: 0 | Plant response rating, Ryegrass, Italian [3, 25]: 20 | Plant response rating, Ryegrass, Italian [3, 26]: 80 | Plant response rating, Ryegrass, Italian [3, 27]: 100 | Plant response rating, Bluegrass [4, 24]: 0 | Plant response rating, Bluegrass [4, 25]: 20 | Plant response rating, Bluegrass [4, 26]: 50 | Plant response rating, Bluegrass [4, 27]: 50 | Plant response rating, Blackgrass [5, 24]: 0 | Plant response rating, Blackgrass [5, 25]: 0 | Plant response rating, Blackgrass [5, 26]: 90 | Plant response rating, Blackgrass [5, 27]: 100 | Plant response rating, Canarygrass [6, 24]: 0 | Plant response rating, Canarygrass [6, 25]: 0 | Plant response rating, Canarygrass [6, 26]: 50 | Plant response rating, Canarygrass [6, 27]: 90 | Plant response rating, Bromegrass, Downy [7, 24]: 0 | Plant response rating, Bromegrass, Downy [7, 25]: 15 | Plant response rating, Bromegrass, Downy [7, 26]: 35 | Plant response rating, Bromegrass, Downy [7, 27]: 35 | Plant response rating, Foxtail, Green [8, 24]: 0 | Plant response rating, Foxtail, Green [8, 25]: 15 | Plant response rating, Foxtail, Green [8, 26]: 80 | Plant response rating, Foxtail, Green [8, 27]: 100 | Plant response rating, Pigweed [9, 24]: 0 | Plant response rating, Pigweed [9, 25]: 0 | Plant response rating, Pigweed [9, 26]: 0 | Plant response rating, Pigweed [9, 27]: 0 | Plant response rating, Barley, Spring [10, 24]: 10 | Plant response rating, Barley, Spring [10, 25]: 20 | Plant response rating, Barley, Spring [10, 26]: 35 | Plant response rating, Barley, Spring [10, 27]: 75 | Plant response rating, Wheat, Spring [11, 24]: 0 | Plant response rating, Wheat, Spring [11, 25]: 15 | Plant response rating, Wheat, Spring [11, 26]: 25 | Plant response rating, Wheat, Spring [11, 27]: 65 | Plant response rating, Mustard, Wild [12, 24]: 0 | Plant response rating, Mustard, Wild [12, 25]: 0 | Plant response rating, Mustard, Wild [12, 26]: 0 | Plant response rating, Mustard, Wild [12, 27]: 0 | Plant response rating, Oat, Wild (wild oat (Avena fatua); [24]): 0 | Plant response rating, Oat, Wild (wild oat (Avena fatua); [25]): 0 | Plant response rating, Oat, Wild (wild oat (Avena fatua); [26]): 75 | Plant response rating, Oat, Wild (wild oat (Avena fatua); [27]): 80 | Plant response rating, Windgrass [13, 24]: 0 | Plant response rating, Windgrass [13, 25]: 0 | Plant response rating, Windgrass [13, 26]: 30 | Plant response rating, Windgrass [13, 27]: 65 | Plant response rating, Barley, Winter [14, 24]: 0 | Plant response rating, Barley, Winter [14, 25]: 20 | Plant response rating, Barley, Winter [14, 26]: 40 | Plant response rating, Barley, Winter [14, 27]: 40 | Plant response rating, Wheat, Winter [15, 24]: 0 | Plant response rating, Wheat, Winter [15, 25]: 20 | Plant response rating, Wheat, Winter [15, 26]: 35 | Plant response rating, Wheat, Winter [15, 27]: 65
